Patent publication US12369579B2, “Antimicrobial agents and compositions and uses thereof” (KODA Therapeutics, LLC, priority 2019, dated 2025)
≈ marks a conversion by molar mass, not a printed value. Like-named read-outs stand apart in the source and are kept apart here.

What was measured:
H. pylori [1] = assay: MIC by broth microdilution assay against H. pylori; format: cell-based; details: Helicobacter pylori, 72 h
Experimental: (§1) The MIC and MBC of the compounds can be measured with the following procedure: In vitro antibacterial activity was tested using the broth microdilution assay. Experiments were carried out in triplicate using Müller-Hinton broth supplemented with 10% FBS in 96-well plates at a total assay volume of 100 μL. Antimicrobials were tested against H. pylori. Two-fold serial dilutions were prepared between the concentration range 0.01-64 μg/mL. An initial bacterial inoculum was adjusted to OD600=0.06 and incubated with test compounds at 37° C. for 3 days in humidified incubators under the 5% CO2 atmosphere. OD600 was measured and the lowest concentration of compound that inhibited bacterial growth was reported as the MIC. See Gwisai T, et al. Repurposing niclosamide as a versatile antimicrobial surface coating against device-associated, hospital-acquired bacterial infections. Biomed Mater. 2017; 12(4):045010. The pH was adjusted to acidic condition with 1 N HCL. The minimal bactericidal concentration (MBC) was determined by plating 5 μL of broth culture from the MIC assay onto Müller-Hinton agar (BD Biosciences) supplemented with 10% FBS. After 72 h, the lowest concentration at which colonies were not observed was reported as the MBC.

H. pylori [2] = assay: MBC by plating broth culture from the MIC assay onto Müller-Hinton agar; format: cell-based; details: Helicobacter pylori
Experimental: as §1

H. pylori strain 49503 = assay: MIC against H. pylori strain 49503; format: cell-based, Helicobacter pylori
Experimental: as §1

H. pylori strain 43504 = assay: MIC against H. pylori strain 43504; format: cell-based, Helicobacter pylori
Experimental: as §1

H. pylori strain 51932 = assay: MIC against H. pylori strain 51932; format: cell-based, Helicobacter pylori
Experimental: as §1

H. pylori [3] = assay: MIC in acidic pH environments; format: cell-based; details: Helicobacter pylori
Experimental: as §1
MIC data in acidic pH is shown in Table 6 for selected compounds identified by compound number.

H. pylori [4] = assay: Antibacterial synergy by checkerboard assay (FICI) with antibiotics and proton pump inhibitors; format: cell-based, Helicobacter pylori; details: tested with amoxicillin, clarithromycin, omeprazole and pantoprazole; synergistic effect = FICI ≤0.5
Experimental: Compounds 1, 13, 15, and 16 were tested with Amoxxicillin, Clarithromycin, Omeprazole, and Pantoprazole.
Antibacterial synergy was tested using the checkerboard assay. The compound of interest was combined with antibiotics and proton pump inhibitors (PPIs). In this series of experiments cultures of H. pylori were adjusted to OD600=0.06 and added to compound pairs that had been serially diluted in the same 96-well plates, vertically for one compound and horizontally for the other. Assays were carried out in triplicate as described in the antibacterial susceptibility assay sub-section. The combinatorial inhibitory concentration was indicated by the FICI. FICI=MICA combination/MICA alone+MICB combination/MICB alone.

[5] = H. pylori, Müller-Hinton broth with 10% FBS, 37° C., 3 days, read-out: MIC
[6] = H. pylori, lowest concentration without colonies after 72 h, read-out: MBC

SMILES	MIC (H. pylori [1]; [5]) [µg/mL]	MBC (H. pylori [2]; [6]) [µg/mL]	MIC (H. pylori [1]) [µg/mL]	MBC (H. pylori [2]; 72 h) [µg/mL]	further results
CCOP(=O)(N/N=C/c1ccc([N+](=O)[O-])o1)Nc1ccccc1 (stereo not shown) [Compound 1]	–	–	1 to 2 (≈ 2.96 to 5.91 µM)	2 (≈ 5.91 µM)	MIC (H. pylori strain 49503): 1.0-2.0 μ/mL; MIC (H. pylori strain 43504): 2.0 µg/mL (≈ 5.91 µM); MIC (H. pylori strain 51932): 1.0 µg/mL (≈ 2.96 µM); MIC (H. pylori [3]; pH 5.5): 0.25 µg/mL (≈ 0.739 µM); MIC (H. pylori [3]; pH 6): 1 µg/mL (≈ 2.96 µM); MIC (H. pylori [3]; pH 6.5): 1 µg/mL (≈ 2.96 µM); MIC (H. pylori [3]; pH 7): 1 µg/mL (≈ 2.96 µM); Combination effect with secondary agent (FIG. 1) (H. pylori [4]): synergistic effect
CCOP(=O)(N/N=C/c1ccc([N+](=O)[O-])o1)Nc1ccc(C)cc1 (stereo not shown) [Compound 2]	–	–	2 (≈ 5.68 µM)	2 (≈ 5.68 µM)	–
CCOP(=O)(N/N=C/c1ccc([N+](=O)[O-])o1)Nc1ccc(OC)cc1 (stereo not shown) [Compound 3]	–	–	2 (≈ 5.43 µM)	2 (≈ 5.43 µM)	–
CCOP(=O)(N/N=C/c1ccc([N+](=O)[O-])o1)Nc1ccc(Cl)cc1 (stereo not shown) [Compound 4]	–	–	1 (≈ 2.68 µM)	1 (≈ 2.68 µM)	–
CCOP(=O)(N/N=C/c1ccc([N+](=O)[O-])o1)Nc1ccc(Cl)c(Cl)c1 (stereo not shown) [Compound 5]	–	–	1 (≈ 2.46 µM)	1 (≈ 2.46 µM)	–
CCOP(=O)(N/N=C/c1ccc([N+](=O)[O-])o1)Nc1ccc2c(c1)OCO2 (stereo not shown) [Compound 6]	–	–	2 (≈ 5.23 µM)	2 (≈ 5.23 µM)	–
CCOP(=O)(NCc1ccccc1)N/N=C/c1ccc([N+](=O)[O-])o1 (stereo not shown) [Compound 7]	–	–	2 (≈ 5.68 µM)	2 (≈ 5.68 µM)	–
O=[N+]([O-])c1ccc(/C=N/N=C/c2ccc([N+](=O)[O-])o2)o1 [Compound 14]	–	–	4 (≈ 14.4 µM)	4 (≈ 14.4 µM)	–
CCOP(=O)(N/N=C1\CCCc2oc([N+](=O)[O-])cc21)Nc1ccccc1 (stereo not shown) [Compound 15]	–	–	0.25 (≈ 0.661 µM)	0.25 (≈ 0.661 µM)	MIC (H. pylori strain 49503): 0.25 µg/mL (≈ 0.661 µM); MIC (H. pylori strain 43504): 1.0 µg/mL (≈ 2.64 µM); MIC (H. pylori strain 51932): 0.25 µg/mL (≈ 0.661 µM); MIC (H. pylori [3]; pH 5.5): 0.06 µg/mL (≈ 0.159 µM); MIC (H. pylori [3]; pH 6): 0.25 µg/mL (≈ 0.661 µM); MIC (H. pylori [3]; pH 6.5): 0.25 µg/mL (≈ 0.661 µM); MIC (H. pylori [3]; pH 7): 0.25 µg/mL (≈ 0.661 µM); Combination effect with secondary agent (FIG. 1) (H. pylori [4]): synergistic effect

Further lines, with some results ahead:

MIC (H. pylori [1]; [5]) [µg/mL]	SMILES	MBC (H. pylori [2]; [6]) [µg/mL]	MIC (H. pylori [1]) [µg/mL]	MBC (H. pylori [2]; 72 h) [µg/mL]	further results
0.01 (≈ 0.0274 µM)	CC1(C)S[C@@H]2[C@H](NC(=O)[C@H](N)c3ccc(O)cc3)C(=O)N2[C@H]1C(=O)O [Amoxicillin, reference compound]	0.025 (≈ 0.0684 µM)	–	–	–
4 (≈ 10.2 µM)	Cc1ccc(NP(=O)(N/N=C/c2ccc([N+](=O)[O-])o2)N2CCOCC2)cc1 (stereo not shown) [Compound 8]	4 (≈ 10.2 µM)	–	–	–
4	Br.Nc1nc2c(s1)CCc1oc([N+](=O)[O-])cc1-2 [Compound 9]	4	–	–	–
4	Br.CNc1nc2c(s1)CCc1oc([N+](=O)[O-])cc1-2 [Compound 10]	4	–	–	–
1 (≈ 3.51 µM)	O=C(/C=C/c1ccccc1)N/N=C/c1ccc([N+](=O)[O-])o1 [Compound 11]	1 (≈ 3.51 µM)	–	–	–
1 (≈ 5.52 µM)	O=C1CCCc2oc([N+](=O)[O-])cc21 [Compound 12]	1 (≈ 5.52 µM)	–	–	–
0.25 (≈ 1.05 µM)	NC(=O)N/N=C1/CCCc2oc([N+](=O)[O-])cc21 [Compound 13]	0.25 (≈ 1.05 µM)	–	–	MIC (H. pylori strain 43504): 0.5 µg/mL (≈ 2.1 µM); MIC (H. pylori [3]; pH 5.5, read-out: MIC): 0.06 µg/mL (≈ 0.252 µM); MIC (H. pylori [3]; pH 6.5, read-out: MIC): 0.25 µg/mL (≈ 1.05 µM); MIC (H. pylori [3]; pH 6.0, read-out: MIC): 0.25 µg/mL (≈ 1.05 µM); MIC (H. pylori [3]; pH 7.0, read-out: MIC): 0.25 µg/mL (≈ 1.05 µM); Combination effect with secondary agent (FIG. 1) (H. pylori [4]): synergistic effect
0.25 (≈ 0.768 µM)	O=C(/C=C/c1ccccc1)N/N=C1\CCCc2oc([N+](=O)[O-])cc21 [Compound 16]	0.25 (≈ 0.768 µM)	–	–	MIC (H. pylori strain 43504): 1.0 µg/mL (≈ 3.07 µM); MIC (H. pylori [3]; pH 5.5, read-out: MIC): 0.06 µg/mL (≈ 0.184 µM); MIC (H. pylori [3]; pH 6.5, read-out: MIC): 0.25 µg/mL (≈ 0.768 µM); MIC (H. pylori [3]; pH 6.0, read-out: MIC): 0.25 µg/mL (≈ 0.768 µM); MIC (H. pylori [3]; pH 7.0, read-out: MIC): 0.25 µg/mL (≈ 0.768 µM); Combination effect with secondary agent (FIG. 1) (H. pylori [4]): synergistic effect
0.25 (≈ 0.764 µM)	O=C(Nc1ccc([N+](=O)[O-])cc1Cl)c1cc(Cl)ccc1O [Niclosamide, reference compound]	0.5 (≈ 1.53 µM)	–	–	–
